The values that follow come from ChEMBL document CHEMBL1137777, “Design, synthesis, and evaluation of indolinones as triple angiokinase inhibitors and the discovery of a highly specific 6-methoxycarbonyl-substituted indolinone (BIBF 1120)” (J Med Chem, 2009).

In general, IC50 refers to the concentration that gives 50% inhibition. What is called EC50 is the concentration at which the effect is half-maximal. A word on the T/C: it is the result in the treated group divided by that in the control group, in per cent. A word on the half-life: it is the time needed for the level to fall by half in the phase considered. For orientation: AUC means the area under the concentration-time curve, a measure of exposure. By Cmax is commonly meant the maximum level reached in the sampled fluid or tissue.

Data set [1] has as its target Vascular endothelial growth factor receptor 2 (Homo sapiens, UniProt P35968). The data set can be described thus: Inhibition of human VEGFR2 expressed in Sf9 cells.
Another data set has as its system HUVEC. Kind of data set: cells. Conditions: Homo sapiens, 3 h.
The next data set deals with HeLa. The data set can be described thus: Antiangiogenic activity against human HeLa cells assessed as inhibition of cell proliferation by [3H]thymidine incorporation assay. In kind it is functional, cell-based.
In data set [2] the target is Epidermal growth factor receptor (Homo sapiens, UniProt P00533). Kind of data set: Inhibition of human EGFR.
For a further data set, the target named is Insulin receptor (Homo sapiens, UniProt P06213). The data set can be described thus: Inhibition of human InsR.
Data set [3] concerns the target Insulin-like growth factor 1 receptor (Homo sapiens, UniProt P08069). Kind of data set: Inhibition of human IGFR1.
For data set [4], the target named is Serine/threonine-protein kinase PLK1 (Homo sapiens, UniProt P53350). The data set can be described thus: Inhibition of human Plk1.
For data set [5], the target named is Receptor tyrosine-protein kinase erbB-2 (Homo sapiens, UniProt P04626). Kind of data set: Inhibition of human HER2.
Data set [6] concerns the target Cyclin-dependent kinase 4 (Homo sapiens, UniProt P11802). Kind of data set: Inhibition of human CDK4.
In data set [7] the target is Cyclin-dependent kinase 1 (Homo sapiens, UniProt P06493). Kind of data set: Inhibition of human CDK1.
In data set [8] the test system is FaDu. Kind of data set: Antitumor activity against human FADU cells xenografted NMRI nu/nu mouse assessed as inhibition of mean tumor volume growth at 50 mg/kg, po qd after 21 days relative to control. In kind it is functional. Background: Xenograft models place foreign cells or tissue in a host animal.
Data set [9] is described as follows: Plasma concentration in NMRI nu/nu mouse at 40 mg/kg, po administered as single dose after 24 hrs. The format is ADME, organism-based. Set-up: dose 40 mg/kg, route oral.
Data set [10] has as its system FaDu. The data set can be described thus: Antiangiogenic activity against human FADU cells assessed as inhibition of cell proliferation by [3H]thymidine incorporation assay. The format is functional, cell-based.
Data set [11] concerns the target Vascular endothelial growth factor receptor 3 (Homo sapiens, UniProt P35916).
Description: Inhibition of human VEGFR3
In data set [12] the target is Fibroblast growth factor receptor 1 (Homo sapiens, UniProt P11362).
Description: Inhibition of human FGFR1
The target of data set [13] is Platelet-derived growth factor receptor alpha (Homo sapiens, UniProt P16234).
Description: Inhibition of human PDGFRalpha
A short description of data set [14]: Plasma concentration in NMRI nu/nu mouse at 40 mg/kg, po administered as single dose after 2 hrs. The format is ADME, organism-based. Set-up: dose 40 mg/kg, route oral.
The target of data set [15] is Vascular endothelial growth factor receptor 1 (Homo sapiens, UniProt P17948).
Description: Inhibition of human VEGFR1
The test system of the next data set is Calu-6. The data set can be described thus: Antiangiogenic activity against human Calu6 cells assessed as inhibition of cell proliferation by [3H]thymidine incorporation assay. In kind it is functional, cell-based. A general note: Dividing cells build labelled thymidine or BrdU into new DNA.
For data set [16], the system named is FaDu. The data set can be described thus: Antitumor activity against human FADU cells xenografted NMRI nu/nu mouse assessed as inhibition of mean tumor volume growth at 50 mg/kg, po bid after 21 days relative to control. In kind it is functional.
The test system of data set [17] is FaDu. The data set can be described thus: Antitumor activity against human FADU cells xenografted NMRI nu/nu mouse assessed as inhibition of mean tumor volume growth at 100 mg/kg, po qd after 21 days relative to control. In kind it is functional.
Data set [18] is described as follows: Half life in NMRI nu/nu mouse at 50 mg/kg, po administered as single dose. In kind it is ADME, organism-based. Conditions: in vivo. Set-up: dose 50 mg/kg, route oral.
Data set [19] in a line: AUC in NMRI nu/nu mouse at 50 mg/kg, po administered as single dose. Conditions: NMRI nu/nu, plasma. Set-up: dose 50 mg/kg, route oral. In kind it is ADME, organism-based, Plasma.
The nature of data set [20]: Cmax in NMRI nu/nu mouse at 50 mg/kg, po administered as single dose. The format is ADME, organism-based. More on the design: dose 50 mg/kg, route oral. Conditions: in vivo.

Sequence of Vascular endothelial growth factor receptor 2 (P35968 whole entry): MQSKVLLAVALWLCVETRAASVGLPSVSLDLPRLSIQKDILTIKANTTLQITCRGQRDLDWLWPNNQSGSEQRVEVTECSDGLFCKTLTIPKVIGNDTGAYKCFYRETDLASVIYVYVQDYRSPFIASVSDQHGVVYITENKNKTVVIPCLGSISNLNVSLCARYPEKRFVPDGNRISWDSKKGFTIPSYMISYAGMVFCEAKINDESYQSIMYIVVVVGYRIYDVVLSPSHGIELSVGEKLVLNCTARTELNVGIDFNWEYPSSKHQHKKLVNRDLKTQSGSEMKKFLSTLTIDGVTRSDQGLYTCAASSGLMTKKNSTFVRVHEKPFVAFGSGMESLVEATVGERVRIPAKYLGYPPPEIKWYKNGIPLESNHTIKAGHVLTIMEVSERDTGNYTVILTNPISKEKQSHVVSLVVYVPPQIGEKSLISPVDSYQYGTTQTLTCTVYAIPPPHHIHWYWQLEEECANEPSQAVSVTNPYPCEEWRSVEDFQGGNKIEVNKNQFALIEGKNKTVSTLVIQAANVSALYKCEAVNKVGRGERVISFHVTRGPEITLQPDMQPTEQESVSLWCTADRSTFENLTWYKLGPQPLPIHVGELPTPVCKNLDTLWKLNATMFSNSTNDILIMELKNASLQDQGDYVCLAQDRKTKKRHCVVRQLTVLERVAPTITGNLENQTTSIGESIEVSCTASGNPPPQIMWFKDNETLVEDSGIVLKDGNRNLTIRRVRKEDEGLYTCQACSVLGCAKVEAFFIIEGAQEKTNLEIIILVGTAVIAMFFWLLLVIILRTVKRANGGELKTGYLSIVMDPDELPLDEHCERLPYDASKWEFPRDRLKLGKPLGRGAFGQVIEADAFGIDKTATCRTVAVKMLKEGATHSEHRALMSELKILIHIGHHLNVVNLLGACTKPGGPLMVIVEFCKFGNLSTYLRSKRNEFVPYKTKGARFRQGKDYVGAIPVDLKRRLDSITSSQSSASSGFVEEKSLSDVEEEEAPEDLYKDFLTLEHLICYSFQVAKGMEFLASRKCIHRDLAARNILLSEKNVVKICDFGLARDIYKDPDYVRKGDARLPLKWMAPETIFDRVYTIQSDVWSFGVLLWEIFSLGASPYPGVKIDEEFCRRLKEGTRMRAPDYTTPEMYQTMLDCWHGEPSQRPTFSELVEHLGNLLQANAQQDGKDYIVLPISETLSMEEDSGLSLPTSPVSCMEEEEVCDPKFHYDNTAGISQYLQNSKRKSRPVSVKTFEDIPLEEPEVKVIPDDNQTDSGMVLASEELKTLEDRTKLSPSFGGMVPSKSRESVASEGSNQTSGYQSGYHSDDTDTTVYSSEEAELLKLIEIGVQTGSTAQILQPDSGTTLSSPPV
Sequence of Cyclin-dependent kinase 4 (P11802 whole entry): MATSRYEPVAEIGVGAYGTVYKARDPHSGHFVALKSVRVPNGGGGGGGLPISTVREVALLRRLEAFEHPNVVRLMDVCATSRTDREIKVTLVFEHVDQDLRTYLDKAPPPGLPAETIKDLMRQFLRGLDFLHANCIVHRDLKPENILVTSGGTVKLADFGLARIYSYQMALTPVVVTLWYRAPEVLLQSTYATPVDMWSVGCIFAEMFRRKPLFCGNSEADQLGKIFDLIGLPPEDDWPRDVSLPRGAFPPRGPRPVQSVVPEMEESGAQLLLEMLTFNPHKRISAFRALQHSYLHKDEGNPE
Sequence of Cyclin-dependent kinase 1 (P06493 whole entry): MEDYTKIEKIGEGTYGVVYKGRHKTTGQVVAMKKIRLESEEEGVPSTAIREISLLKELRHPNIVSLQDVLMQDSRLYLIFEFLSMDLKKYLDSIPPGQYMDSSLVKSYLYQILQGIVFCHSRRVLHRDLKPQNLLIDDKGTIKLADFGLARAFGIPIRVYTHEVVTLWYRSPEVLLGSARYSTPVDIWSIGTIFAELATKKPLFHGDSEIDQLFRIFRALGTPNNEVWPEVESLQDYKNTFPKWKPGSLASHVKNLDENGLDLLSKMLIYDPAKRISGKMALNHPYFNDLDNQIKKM
Sequence of Serine/threonine-protein kinase PLK1 (P53350 whole entry): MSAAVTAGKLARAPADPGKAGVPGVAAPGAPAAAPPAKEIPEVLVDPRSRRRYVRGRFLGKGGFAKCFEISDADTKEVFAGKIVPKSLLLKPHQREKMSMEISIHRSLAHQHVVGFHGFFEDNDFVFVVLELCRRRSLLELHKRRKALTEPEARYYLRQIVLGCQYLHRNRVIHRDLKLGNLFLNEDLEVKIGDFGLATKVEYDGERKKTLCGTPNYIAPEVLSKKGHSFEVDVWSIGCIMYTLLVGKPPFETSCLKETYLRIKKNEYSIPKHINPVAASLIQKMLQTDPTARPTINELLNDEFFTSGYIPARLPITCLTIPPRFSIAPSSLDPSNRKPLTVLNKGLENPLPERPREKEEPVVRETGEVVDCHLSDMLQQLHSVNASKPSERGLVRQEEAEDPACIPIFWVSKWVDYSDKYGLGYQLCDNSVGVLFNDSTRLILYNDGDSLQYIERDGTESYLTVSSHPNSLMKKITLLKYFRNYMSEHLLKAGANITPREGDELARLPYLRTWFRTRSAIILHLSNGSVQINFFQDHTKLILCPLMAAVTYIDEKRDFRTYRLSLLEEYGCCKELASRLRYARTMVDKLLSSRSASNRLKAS
Sequence of Fibroblast growth factor receptor 1 (P11362 whole entry): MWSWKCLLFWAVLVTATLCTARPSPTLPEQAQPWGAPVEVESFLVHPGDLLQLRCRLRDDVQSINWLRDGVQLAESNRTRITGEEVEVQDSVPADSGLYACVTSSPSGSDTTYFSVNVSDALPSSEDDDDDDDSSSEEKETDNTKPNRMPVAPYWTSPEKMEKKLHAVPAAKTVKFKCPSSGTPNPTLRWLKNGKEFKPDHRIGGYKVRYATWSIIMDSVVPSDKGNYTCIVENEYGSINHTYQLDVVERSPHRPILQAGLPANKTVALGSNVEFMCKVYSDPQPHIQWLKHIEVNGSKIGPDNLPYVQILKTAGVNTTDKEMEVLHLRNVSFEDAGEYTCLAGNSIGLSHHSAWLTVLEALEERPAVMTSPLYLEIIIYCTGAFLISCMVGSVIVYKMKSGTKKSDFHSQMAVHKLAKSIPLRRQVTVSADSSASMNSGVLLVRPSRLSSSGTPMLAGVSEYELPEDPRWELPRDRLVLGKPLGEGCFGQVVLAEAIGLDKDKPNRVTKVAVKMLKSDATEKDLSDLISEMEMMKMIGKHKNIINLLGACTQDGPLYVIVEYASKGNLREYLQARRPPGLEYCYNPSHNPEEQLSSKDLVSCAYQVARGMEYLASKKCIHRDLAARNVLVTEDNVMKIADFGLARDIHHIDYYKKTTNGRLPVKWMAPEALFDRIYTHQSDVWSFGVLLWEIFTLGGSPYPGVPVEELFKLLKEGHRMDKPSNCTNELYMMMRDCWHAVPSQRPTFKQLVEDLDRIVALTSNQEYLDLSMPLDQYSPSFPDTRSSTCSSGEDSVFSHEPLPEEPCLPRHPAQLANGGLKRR
Sequence of Vascular endothelial growth factor receptor 1 (P17948 whole entry): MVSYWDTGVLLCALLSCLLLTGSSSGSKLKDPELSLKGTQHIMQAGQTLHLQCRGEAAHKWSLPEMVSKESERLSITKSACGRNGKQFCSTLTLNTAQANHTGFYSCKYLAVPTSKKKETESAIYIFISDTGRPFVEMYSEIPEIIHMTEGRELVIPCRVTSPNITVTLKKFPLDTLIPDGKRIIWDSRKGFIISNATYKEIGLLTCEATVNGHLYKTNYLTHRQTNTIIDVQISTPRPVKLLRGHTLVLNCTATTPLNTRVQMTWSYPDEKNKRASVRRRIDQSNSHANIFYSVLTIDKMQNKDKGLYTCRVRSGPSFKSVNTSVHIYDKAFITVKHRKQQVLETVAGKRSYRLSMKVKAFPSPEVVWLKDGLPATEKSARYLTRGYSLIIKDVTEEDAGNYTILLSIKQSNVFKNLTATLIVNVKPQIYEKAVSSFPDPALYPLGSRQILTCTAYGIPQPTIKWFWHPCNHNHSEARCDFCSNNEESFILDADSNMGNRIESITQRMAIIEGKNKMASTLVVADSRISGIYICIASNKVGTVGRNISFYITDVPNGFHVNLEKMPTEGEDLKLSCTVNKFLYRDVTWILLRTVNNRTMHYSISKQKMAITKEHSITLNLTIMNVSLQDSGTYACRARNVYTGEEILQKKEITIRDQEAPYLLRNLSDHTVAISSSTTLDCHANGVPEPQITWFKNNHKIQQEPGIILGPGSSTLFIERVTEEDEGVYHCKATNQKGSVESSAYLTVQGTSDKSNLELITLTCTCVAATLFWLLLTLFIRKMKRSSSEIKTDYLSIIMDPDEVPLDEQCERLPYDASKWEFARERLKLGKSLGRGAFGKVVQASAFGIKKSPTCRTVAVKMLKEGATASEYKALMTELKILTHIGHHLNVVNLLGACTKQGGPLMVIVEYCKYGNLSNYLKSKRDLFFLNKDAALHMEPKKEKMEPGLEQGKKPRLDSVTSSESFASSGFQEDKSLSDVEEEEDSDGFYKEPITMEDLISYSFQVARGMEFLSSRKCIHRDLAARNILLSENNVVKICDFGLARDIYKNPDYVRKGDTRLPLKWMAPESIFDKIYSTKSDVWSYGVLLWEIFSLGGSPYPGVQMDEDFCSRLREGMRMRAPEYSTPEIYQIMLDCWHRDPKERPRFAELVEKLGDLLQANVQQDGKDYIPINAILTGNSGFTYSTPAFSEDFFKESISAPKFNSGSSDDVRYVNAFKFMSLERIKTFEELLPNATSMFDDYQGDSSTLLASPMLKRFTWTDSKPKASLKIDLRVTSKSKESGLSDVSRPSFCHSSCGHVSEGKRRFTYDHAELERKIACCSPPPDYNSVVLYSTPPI
Description for HUVEC: Antiangiogenic activity in HUVEC assessed as inhibition of VEGF-induced cell proliferation by [3H]thymidine incorporation assay

Consider `CCN(C)C(=O)c1ccc2c(c1)NC(=O)/C2=C(\Nc1ccc(CN2CCCCC2)cc1)c1ccccc1`, for which, in [1], the concentration for half-maximal inhibition (IC50) is 1450 nM. Besides, in the data set with HUVEC, the concentration for a half-maximal effect (EC50) was 718 nM.

The compound `O=C1Nc2cc([N+](=O)[O-])ccc2/C1=C(/Nc1ccc(CN2CCCCC2)cc1)c1ccccc1` came in with a concentration for half-maximal inhibition (IC50) in data set [1] of 7 nM. In addition, the EC50 in the data set on HUVEC is 60 nM; in the data set on HeLa it was more than 1000 nM.

Take `NC(=O)c1ccc2c(c1)NC(=O)/C2=C(\Nc1ccc(CN2CCCCC2)cc1)c1ccccc1`: the IC50 in data set [2] is more than 10 µM; on Insulin receptor it was more than 10 µM; in data set [3] it was more than 10 µM; in data set [4], more than 10 µM; in data set [1] it was 763 nM; in data set [5] it was more than 10 µM. Besides, the IC50 in [6] and in [7] was more than 10 µM in each case. The compound also returned an EC50 with HUVEC of 342 nM.

Turning to `COC(=O)c1ccc2c(c1)NC(=O)/C2=C(\Nc1ccc(NC(=O)CN(C)C)cc1)c1ccccc1`, inhibition in data set [1] was half-maximal at 119 nM (IC50). In the data set with HUVEC, this compound returned an EC50 of 88 nM.

`CCOC(=O)c1ccc2c(c1)NC(=O)/C2=C(\Nc1ccc(CN2CCCCC2)cc1)c1ccccc1`: in [1], the IC50 worked out at 109 nM. Also, the figures for the EC50 with HUVEC and in the data set with HeLa were 47 nM and more than 1000 nM, respectively.

In turn, `COC(=O)c1ccc2c(c1)NC(=O)/C2=C(\Nc1ccccc1)c1ccccc1` showed an IC50 in [1] of 8000 nM.

The compound `CC(=O)Nc1ccc2c(c1)NC(=O)/C2=C(\Nc1ccc(CN2CCCCC2)cc1)c1ccccc1` yielded an IC50 in [1] of more than 3000 nM.

In data set [1], `COC(=O)c1ccc2c(c1)NC(=O)/C2=C(\Nc1cccc(C(=O)N(C)CCCN(C)C)c1)c1ccccc1` had an IC50 of 248 nM.

Regarding `COC(=O)c1ccc2c(c1)NC(=O)/C2=C(\Nc1ccc(CN(C)C)cc1)c1ccccc1`, 64 nM corresponded to half-maximal inhibition in data set [1] (IC50).

Compound `COC(=O)c1ccc2c(c1)NC(=O)/C2=C(\Nc1ccc(N(C)S(C)(=O)=O)cc1)c1ccccc1` registered an IC50 in data set [1] of 150 nM.

As for `COC(=O)c1ccc2c(c1)NC(=O)/C2=C(\Nc1ccc(N(CCN(C)C)S(C)(=O)=O)cc1)c1ccccc1`, it took 23 nM to reach half-maximal inhibition in [1] (IC50). Further, the response in the data set with HUVEC was half-maximal at 14 nM (EC50).

In turn, `COC(=O)c1ccc2c(c1)NC(=O)/C2=C(\Nc1ccc(N(CC(=O)N(C)C)C(C)=O)cc1)c1ccccc1` displayed an IC50 in data set [1] of 8 nM. In addition, the 50% effective concentration (EC50) in the data set with HUVEC came to 37 nM.

In data set [1], `CC(C)NC(=O)c1ccc2c(c1)NC(=O)/C2=C(\Nc1ccc(CN2CCCCC2)cc1)c1ccccc1` yielded an IC50 of 1230 nM. The compound further came in with an EC50 in the data set with HUVEC of 1070 nM.

As for `COC(=O)c1ccc2c(c1)NC(=O)/C2=C(\Nc1ccc(CN(C)C(=O)N(C)C)cc1)c1ccccc1`, the T/C in the data set on FaDu [8] came out at 31%; with FaDu [16], 11%; in the data set with FaDu [17], 13%. The compound also displayed a concentration at 24 h in data set [9] of 16 nM. In addition, the half-maximal effective concentration (EC50) in the data set with FaDu [10], in the data set on Calu-6 and in the data set on HeLa was more than 1000 nM throughout. Also, the IC50 was 10 nM in data set [11]; more than 10 µM in data set [2]; more than 10 µM against Insulin receptor; more than 10 µM in [3]; 50 nM in data set [12]; more than 10 µM in [4]. In addition, the IC50 in [13] is 20 nM; in data set [1], 61 nM; in [5] it was more than 10 µM; in data set [6], more than 10 µM; in data set [15], 82 nM; in data set [7] it was more than 10 µM. Also, in the data set with HUVEC, the IC50 turned out to be 22 nM. Also, the concentration at 2 h in [14] amounted to 1250 nM.

On to `COC(=O)c1ccc2c(c1)NC(=O)/C2=C(\Nc1ccc(N(CCN(C)C)C(C)=O)cc1)c1ccccc1`, for which, in data set [1], the IC50 is 12 nM. Moreover, in the data set with HUVEC, it took 15 nM to reach a half-maximal effect (EC50).

Take `CN(C)C(=O)c1ccc2c(c1)NC(=O)/C2=C(\Nc1ccc(CN2CCCCC2)cc1)c1ccccc1`: in [1], half-maximal inhibition (IC50) required 1310 nM. Also, the concentration giving a half-maximal response (EC50) in the data set on HUVEC is 542 nM.

`Nc1ccc2c(c1)NC(=O)/C2=C(\Nc1ccc(CN2CCCCC2)cc1)c1ccccc1` came in with an IC50 in data set [1] of 132 nM. Besides, the EC50 with HUVEC amounted to 414 nM.

For `O=C1Nc2cc(-n3cccc3)ccc2/C1=C(/Nc1ccc(CN2CCCCC2)cc1)c1ccccc1`, the IC50 in [1] amounted to 791 nM. Further, the EC50 with HUVEC was 585 nM.

For the compound `CNC(=O)c1ccc2c(c1)NC(=O)/C2=C(\Nc1ccc(CN2CCCCC2)cc1)c1ccccc1`, in data set [1], the half-inhibitory concentration (IC50) worked out at 2100 nM. The same compound displayed an EC50 with HUVEC of 1910 nM.

Regarding `CC(=O)c1ccc2c(c1)NC(=O)/C2=C(\Nc1ccc(CN2CCCCC2)cc1)c1ccccc1`, inhibition in [1] was half-maximal at 1750 nM (IC50).

`O=C1Nc2cc(C(=O)O)ccc2/C1=C(/Nc1ccc(CN2CCCCC2)cc1)c1ccccc1` returned a 50% inhibitory concentration (IC50) in [1] of more than 1000 nM.

As for `O=C1Nc2ccccc2/C1=C(/Nc1ccc(CN2CCCCC2)cc1)c1ccccc1`, in [1], half-maximal inhibition (IC50) required 2110 nM.

Compound `COC(=O)c1ccc2c(c1)NC(=O)/C2=C(\NC1CCC(NC(=O)CN(C)C)CC1)c1ccccc1` (centres undefined) yielded a half-maximal inhibitory concentration (IC50) in data set [1] of more than 10000 nM.

As for `COC(=O)c1ccc2c(c1)NC(=O)/C2=C(\NC1CCN(C)CC1)c1ccccc1`, the IC50 in data set [1] is more than 10000 nM.

As for `COC(=O)c1ccc2c(c1)NC(=O)/C2=C(\Nc1ccc(C(=O)N(C)CCN(C)C)cc1)c1ccccc1`, half-maximal inhibition in data set [1] (IC50) was put at 24 nM. Further, the EC50 in the data set with HUVEC is 25 nM.

Turning to `N#Cc1ccc2c(c1)NC(=O)/C2=C(\Nc1ccc(CN2CCCCC2)cc1)c1ccccc1`, in [1], the 50% inhibitory concentration (IC50) is 248 nM. The compound also returned an EC50 in the data set on HUVEC of 281 nM.

For the compound `O=C1Nc2cc(Cl)ccc2/C1=C(/Nc1ccc(CN2CCCCC2)cc1)c1ccccc1`, the concentration for half-maximal inhibition (IC50) in data set [1] stood at 129 nM. Also, the EC50 in the data set on HUVEC was 49 nM.

`COC(=O)c1ccc2c(c1)NC(=O)/C2=C(\Nc1ccc(CN2CCCCC2)cc1)c1ccccc1`: the IC50 in data set [11] worked out at 32 nM; in [12] it was 71 nM; in data set [13], 54 nM; in data set [1] it was 36 nM; in [15] it was 146 nM. In [18], this compound had a half-life of 210 min. Besides, the exposure (AUC) in data set [19] stood at 5250 ng·h/mL. Further, the highest level in data set [20] (Cmax) was 952 ng/mL. Further, the concentration giving a half-maximal response (EC50) with HUVEC was 103 nM; in the data set with HeLa, more than 1000 nM.

Consider `COC(=O)c1ccc2c(c1)NC(=O)/C2=C(\Nc1ccc(N(CCCN(C)C)C(C)=O)cc1)c1ccccc1`, for which the IC50 in [1] was 9 nM. In the data set with HUVEC, the concentration for a half-maximal effect (EC50) was determined as 15 nM.

As to `COC(=O)c1ccc2c(c1)NC(=O)/C2=C(\Nc1ccc(CN2CCCC2=O)cc1)c1ccccc1`, the IC50 in [1] is 245 nM.

As for `COC(=O)c1ccc2c(c1)NC(=O)/C2=C(\Nc1ccc(NC(=O)CN2CCN(C)CC2)cc1)c1ccccc1`, the IC50 in [1] came out at 83 nM. The midpoint of the response in the data set on HUVEC, the EC50, lay at 83 nM.

`COC(=O)c1ccc2c(c1)NC(=O)/C2=C(\Nc1ccc(N(C)C(=O)Cn2ccnc2)cc1)c1ccccc1`: in [1], the midpoint of inhibition, the IC50, lay at 6 nM. Moreover, it took 52 nM to reach a half-maximal effect with HUVEC (EC50).
